Bounds are passed on as bounds.

Assay [1] has as its target T1, D(4) dopamine receptor (Homo sapiens, UniProt P21917).
T1 sequence (P21917 whole entry): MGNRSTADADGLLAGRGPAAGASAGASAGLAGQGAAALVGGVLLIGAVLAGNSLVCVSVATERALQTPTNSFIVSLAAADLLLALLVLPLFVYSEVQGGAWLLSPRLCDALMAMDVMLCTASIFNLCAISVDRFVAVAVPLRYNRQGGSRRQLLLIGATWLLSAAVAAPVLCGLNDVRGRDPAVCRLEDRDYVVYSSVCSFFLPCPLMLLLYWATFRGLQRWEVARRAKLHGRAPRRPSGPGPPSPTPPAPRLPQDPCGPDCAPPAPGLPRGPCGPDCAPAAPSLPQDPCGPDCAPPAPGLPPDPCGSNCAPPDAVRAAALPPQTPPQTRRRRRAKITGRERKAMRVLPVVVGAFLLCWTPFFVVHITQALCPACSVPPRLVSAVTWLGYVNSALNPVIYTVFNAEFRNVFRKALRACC

For assay [2], the target named is T2, Glucocorticoid receptor (Homo sapiens, UniProt P04150).
T2 sequence (P04150 whole entry): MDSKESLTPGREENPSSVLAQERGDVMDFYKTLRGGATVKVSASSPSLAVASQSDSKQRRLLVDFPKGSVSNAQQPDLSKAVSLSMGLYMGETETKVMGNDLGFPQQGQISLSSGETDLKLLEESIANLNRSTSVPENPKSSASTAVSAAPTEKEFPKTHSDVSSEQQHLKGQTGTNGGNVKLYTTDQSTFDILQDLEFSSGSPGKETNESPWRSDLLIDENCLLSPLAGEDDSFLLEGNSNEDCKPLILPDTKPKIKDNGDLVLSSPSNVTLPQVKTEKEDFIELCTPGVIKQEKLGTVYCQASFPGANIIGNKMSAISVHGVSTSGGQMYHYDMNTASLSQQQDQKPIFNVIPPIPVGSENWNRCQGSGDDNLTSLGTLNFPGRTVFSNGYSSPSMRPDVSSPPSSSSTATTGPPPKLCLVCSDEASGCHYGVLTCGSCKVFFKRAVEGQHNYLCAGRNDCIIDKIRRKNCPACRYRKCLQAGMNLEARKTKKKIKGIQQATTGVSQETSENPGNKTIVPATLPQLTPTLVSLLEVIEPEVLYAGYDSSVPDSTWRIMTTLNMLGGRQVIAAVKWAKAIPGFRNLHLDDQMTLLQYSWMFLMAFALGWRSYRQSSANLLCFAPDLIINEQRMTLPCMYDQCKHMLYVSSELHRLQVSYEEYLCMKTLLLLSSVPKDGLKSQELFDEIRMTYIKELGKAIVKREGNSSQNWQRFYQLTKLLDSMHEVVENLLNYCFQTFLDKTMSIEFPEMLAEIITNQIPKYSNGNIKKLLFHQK

Assay [3] has as its target Neurotensin receptor type 1 (Homo sapiens, UniProt P30989).
For assay [4], the target named is Kappa-type opioid receptor (Homo sapiens, UniProt P41145).
For assay [5], the target named is Gamma-aminobutyric acid receptor subunit alpha-1/alpha-2/beta-2/gamma-2 (Homo sapiens, UniProt P14867+P18507+P47869+P47870). The format is functional, cell-based.
Assay [6] concerns the target T3, Progesterone receptor (Homo sapiens, UniProt P06401).
T3 sequence (P06401 whole entry): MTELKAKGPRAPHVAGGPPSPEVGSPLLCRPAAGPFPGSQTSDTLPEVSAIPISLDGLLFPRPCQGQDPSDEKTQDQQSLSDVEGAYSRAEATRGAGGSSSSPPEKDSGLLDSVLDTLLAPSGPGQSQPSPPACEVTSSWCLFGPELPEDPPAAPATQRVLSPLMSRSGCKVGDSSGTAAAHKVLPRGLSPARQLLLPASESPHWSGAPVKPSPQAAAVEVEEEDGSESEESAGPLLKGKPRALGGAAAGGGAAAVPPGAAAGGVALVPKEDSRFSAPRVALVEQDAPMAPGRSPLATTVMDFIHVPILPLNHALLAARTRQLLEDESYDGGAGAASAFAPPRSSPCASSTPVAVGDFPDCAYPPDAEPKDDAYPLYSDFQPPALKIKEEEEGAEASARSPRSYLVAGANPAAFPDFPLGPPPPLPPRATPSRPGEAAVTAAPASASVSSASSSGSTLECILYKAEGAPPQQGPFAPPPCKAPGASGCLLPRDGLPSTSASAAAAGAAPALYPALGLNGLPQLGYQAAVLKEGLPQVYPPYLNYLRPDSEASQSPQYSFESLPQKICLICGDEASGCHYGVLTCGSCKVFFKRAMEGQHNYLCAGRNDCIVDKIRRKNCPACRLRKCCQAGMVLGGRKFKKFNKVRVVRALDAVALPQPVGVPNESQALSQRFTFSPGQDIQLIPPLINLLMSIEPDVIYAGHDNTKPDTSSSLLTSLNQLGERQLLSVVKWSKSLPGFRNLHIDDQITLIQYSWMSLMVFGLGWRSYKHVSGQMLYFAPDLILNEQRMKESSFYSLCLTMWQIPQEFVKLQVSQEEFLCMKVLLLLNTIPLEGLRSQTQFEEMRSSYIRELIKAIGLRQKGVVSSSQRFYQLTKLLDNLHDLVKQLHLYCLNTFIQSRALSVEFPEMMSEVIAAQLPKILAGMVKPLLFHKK

Assay [7] deals with Sodium-dependent dopamine transporter (Homo sapiens, UniProt Q01959).
Further: assay procedure not described here.

Chain of Sodium-dependent dopamine transporter (Q01959 whole entry): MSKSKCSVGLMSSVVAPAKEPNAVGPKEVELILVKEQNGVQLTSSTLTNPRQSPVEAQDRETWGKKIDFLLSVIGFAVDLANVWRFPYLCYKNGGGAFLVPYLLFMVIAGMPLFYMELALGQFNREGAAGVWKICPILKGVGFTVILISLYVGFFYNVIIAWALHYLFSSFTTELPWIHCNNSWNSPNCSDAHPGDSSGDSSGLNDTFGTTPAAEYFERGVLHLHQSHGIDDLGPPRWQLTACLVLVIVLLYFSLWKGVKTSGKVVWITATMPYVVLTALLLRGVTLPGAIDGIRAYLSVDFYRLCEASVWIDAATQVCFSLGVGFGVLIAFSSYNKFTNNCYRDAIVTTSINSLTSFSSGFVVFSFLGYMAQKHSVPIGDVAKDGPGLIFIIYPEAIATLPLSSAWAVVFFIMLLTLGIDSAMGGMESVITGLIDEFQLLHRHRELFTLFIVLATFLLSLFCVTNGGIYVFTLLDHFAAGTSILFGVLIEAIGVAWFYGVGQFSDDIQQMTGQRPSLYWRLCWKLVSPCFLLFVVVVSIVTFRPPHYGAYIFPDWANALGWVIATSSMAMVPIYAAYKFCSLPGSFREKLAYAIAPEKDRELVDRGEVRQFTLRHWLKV
Chain of Neurotensin receptor type 1 (P30989 whole entry): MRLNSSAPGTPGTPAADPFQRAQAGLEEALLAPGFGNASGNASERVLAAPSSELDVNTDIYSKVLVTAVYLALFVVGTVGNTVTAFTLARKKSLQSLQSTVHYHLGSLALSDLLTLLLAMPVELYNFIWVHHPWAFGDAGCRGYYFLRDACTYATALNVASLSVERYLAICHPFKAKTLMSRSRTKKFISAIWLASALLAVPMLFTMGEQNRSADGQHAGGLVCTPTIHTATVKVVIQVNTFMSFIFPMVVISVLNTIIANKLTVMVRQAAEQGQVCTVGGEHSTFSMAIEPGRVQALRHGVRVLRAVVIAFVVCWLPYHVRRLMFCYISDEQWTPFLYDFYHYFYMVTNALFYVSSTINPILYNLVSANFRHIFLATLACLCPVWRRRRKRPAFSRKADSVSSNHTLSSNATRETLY
Chain of Kappa-type opioid receptor (P41145 whole entry): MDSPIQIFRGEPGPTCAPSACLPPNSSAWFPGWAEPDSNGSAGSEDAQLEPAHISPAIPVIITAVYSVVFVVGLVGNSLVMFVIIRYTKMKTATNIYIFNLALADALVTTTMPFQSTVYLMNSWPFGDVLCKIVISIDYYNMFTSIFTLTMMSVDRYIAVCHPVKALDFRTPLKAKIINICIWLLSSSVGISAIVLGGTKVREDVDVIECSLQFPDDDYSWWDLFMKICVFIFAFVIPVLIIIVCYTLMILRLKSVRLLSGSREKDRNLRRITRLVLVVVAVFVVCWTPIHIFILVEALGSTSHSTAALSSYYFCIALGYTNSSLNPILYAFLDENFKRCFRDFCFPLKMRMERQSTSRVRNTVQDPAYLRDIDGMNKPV
Chain of Gamma-aminobutyric acid receptor subunit alpha-1/alpha-2/beta-2/gamma-2 (P14867 whole entry): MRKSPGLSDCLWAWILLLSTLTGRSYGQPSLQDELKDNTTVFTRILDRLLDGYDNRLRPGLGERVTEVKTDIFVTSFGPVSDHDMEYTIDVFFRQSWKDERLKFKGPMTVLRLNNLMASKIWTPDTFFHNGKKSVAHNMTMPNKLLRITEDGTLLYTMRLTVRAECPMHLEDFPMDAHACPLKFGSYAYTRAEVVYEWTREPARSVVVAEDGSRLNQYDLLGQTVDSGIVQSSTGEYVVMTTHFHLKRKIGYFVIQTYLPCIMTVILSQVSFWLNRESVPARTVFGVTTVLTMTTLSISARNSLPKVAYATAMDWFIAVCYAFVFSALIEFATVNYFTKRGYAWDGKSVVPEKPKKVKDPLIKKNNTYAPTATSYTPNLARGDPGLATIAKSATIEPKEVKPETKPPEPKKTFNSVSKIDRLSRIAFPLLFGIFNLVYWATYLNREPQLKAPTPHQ
Chain of Gamma-aminobutyric acid receptor subunit alpha-1/alpha-2/beta-2/gamma-2 (P47870 whole entry): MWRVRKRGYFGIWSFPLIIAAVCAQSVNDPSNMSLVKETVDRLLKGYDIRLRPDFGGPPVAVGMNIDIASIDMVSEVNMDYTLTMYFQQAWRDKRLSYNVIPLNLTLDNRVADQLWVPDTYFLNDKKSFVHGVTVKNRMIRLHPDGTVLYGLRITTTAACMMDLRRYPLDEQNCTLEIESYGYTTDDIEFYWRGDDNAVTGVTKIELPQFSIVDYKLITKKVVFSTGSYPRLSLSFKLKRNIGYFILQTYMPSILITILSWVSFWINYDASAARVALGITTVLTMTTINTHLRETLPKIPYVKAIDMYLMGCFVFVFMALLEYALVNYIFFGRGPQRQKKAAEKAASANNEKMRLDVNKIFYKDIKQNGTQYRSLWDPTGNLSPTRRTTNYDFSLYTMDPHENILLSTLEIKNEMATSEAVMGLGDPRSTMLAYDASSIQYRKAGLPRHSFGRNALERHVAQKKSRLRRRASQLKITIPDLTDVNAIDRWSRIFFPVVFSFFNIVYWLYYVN
Chain of Gamma-aminobutyric acid receptor subunit alpha-1/alpha-2/beta-2/gamma-2 (P18507 whole entry): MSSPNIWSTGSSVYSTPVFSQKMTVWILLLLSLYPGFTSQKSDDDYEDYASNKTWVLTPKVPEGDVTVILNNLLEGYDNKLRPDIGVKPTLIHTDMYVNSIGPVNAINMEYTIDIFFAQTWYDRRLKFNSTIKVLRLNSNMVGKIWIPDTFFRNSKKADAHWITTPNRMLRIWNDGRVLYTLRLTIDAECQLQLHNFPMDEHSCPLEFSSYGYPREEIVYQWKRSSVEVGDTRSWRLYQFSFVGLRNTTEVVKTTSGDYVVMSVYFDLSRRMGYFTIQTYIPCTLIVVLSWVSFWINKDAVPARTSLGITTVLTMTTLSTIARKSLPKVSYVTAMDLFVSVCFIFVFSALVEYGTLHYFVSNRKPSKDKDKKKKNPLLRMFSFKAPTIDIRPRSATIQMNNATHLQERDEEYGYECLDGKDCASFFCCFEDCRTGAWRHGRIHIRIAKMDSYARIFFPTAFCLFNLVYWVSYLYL
Chain of Gamma-aminobutyric acid receptor subunit alpha-1/alpha-2/beta-2/gamma-2 (P47869 whole entry): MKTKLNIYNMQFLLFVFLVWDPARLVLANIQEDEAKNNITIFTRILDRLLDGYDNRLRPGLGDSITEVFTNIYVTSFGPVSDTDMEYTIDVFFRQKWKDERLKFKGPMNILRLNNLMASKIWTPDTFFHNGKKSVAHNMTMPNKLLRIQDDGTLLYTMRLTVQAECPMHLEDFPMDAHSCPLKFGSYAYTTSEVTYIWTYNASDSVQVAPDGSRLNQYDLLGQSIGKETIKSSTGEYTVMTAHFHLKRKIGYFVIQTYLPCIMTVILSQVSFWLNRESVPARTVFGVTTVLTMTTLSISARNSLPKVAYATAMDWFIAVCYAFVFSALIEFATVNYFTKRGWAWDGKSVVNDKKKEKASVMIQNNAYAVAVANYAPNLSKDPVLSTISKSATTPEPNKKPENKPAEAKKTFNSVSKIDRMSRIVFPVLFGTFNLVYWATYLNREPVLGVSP

Consider `CN(C)CCC(c1ccc(Cl)cc1)c1ccccn1` (stereo not drawn) [CHLORPHENIRAMINE], for which the AC50 (as a rule, the midpoint of the concentration-response curve, whichever way the signal moves) in assay [1] was more than 10 µM; in assay [2], more than 30 µM; in assay [3], more than 30 µM; in assay [4] it was more than 10 µM.
`Cn1nnc2c(C(N)=O)ncn2c1=O` [TEMOZOLOMIDE]: the AC50 in assay [1] is more than 10 µM; in assay [5], more than 30 µM; in assay [3], more than 30 µM; in assay [4], more than 10 µM.
`Cc1cn([C@H]2C=C[C@@H](CO)O2)c(=O)[nH]c1=O` [STAVUDINE]: the AC50 is more than 10 µM in assay [1]; more than 30 µM in assay [3]; more than 10 µM in assay [4]; more than 30 µM in assay [6]; more than 30 µM in assay [7].
With `CCOC(=O)[C@H](CCc1ccccc1)N[C@@H](C)C(=O)N1[C@H](C(=O)O)C[C@@H]2CCC[C@@H]21`, the AC50 in assay [1] was more than 10 µM; in assay [2], more than 30 µM; in assay [3], more than 30 µM; in assay [4], more than 10 µM.
Consider `Cc1ccc(-c2cc(C(F)(F)F)nn2-c2ccc(S(N)(=O)=O)cc2)cc1` [CELECOXIB], for which the concentration at half-maximal activity (AC50) in assay [1] was more than 10 µM; in assay [2], more than 30 µM; in assay [3], more than 30 µM; in assay [4], more than 10 µM.
On to `NCC(CC(=O)O)c1ccc(Cl)cc1` (stereo not drawn) [BACLOFEN], for which the AC50 in assay [1] is more than 10 µM; in assay [5], more than 30 µM; in assay [2], more than 30 µM; in assay [3], more than 30 µM; in assay [4], more than 10 µM; in assay [6], more than 30 µM. Also, in assay [7], the concentration at half-maximal activity (AC50) is more than 30 µM.
For `Cc1cn([C@H]2C[C@H](N=[N+]=[N-])[C@@H](CO)O2)c(=O)[nH]c1=O` [ZIDOVUDINE], the AC50 is more than 10 µM in assay [1]; more than 30 µM in assay [2]; more than 30 µM in assay [3]; more than 10 µM in assay [4]; more than 30 µM in assay [6]; more than 30 µM in assay [7].
Consider `CS(=O)(=O)c1ccc(C2=C(c3ccccc3)C(=O)OC2)cc1` [ROFECOXIB], for which the AC50 was more than 10 µM in assay [1]; more than 30 µM in assay [2]; more than 30 µM in assay [3]; more than 10 µM in assay [4]; more than 30 µM in assay [6]; more than 30 µM in assay [7].
Turning to `Cc1c(C(=O)NN2CCCCC2)nn(-c2ccc(Cl)cc2Cl)c1-c1ccc(Cl)cc1` [RIMONABANT], the AC50 in assay [1] is more than 10 µM; in assay [5], more than 30 µM; in assay [2] it was more than 30 µM; in assay [3], more than 30 µM.
Take `CC1=C(C(=O)O)N2C(=O)[C@@H](NC(=O)[C@H](N)c3ccccc3)[C@H]2SC1` [CEPHALEXIN ANHYDROUS]: the concentration at half-maximal activity (AC50) in assay [1] was more than 10 µM; in assay [2], more than 30 µM; in assay [3], more than 30 µM; in assay [4], more than 10 µM.
For `CC[C@H]1OC(=O)[C@H](C)[C@@H](O[C@H]2C[C@@](C)(OC)[C@@H](O)[C@H](C)O2)[C@H](C)[C@@H](O[C@@H]2O[C@H](C)C[C@H](N(C)C)[C@H]2O)[C@](C)(O)C[C@@H](C)CN(C)[C@H](C)[C@@H](O)[C@]1(C)O` [AZITHROMYCIN], the AC50 is more than 10 µM in assay [1]; more than 30 µM in assay [3]; more than 10 µM in assay [4]; more than 30 µM in assay [6]; more than 30 µM in assay [7].

The values above are taken from ChEMBL document CHEMBL5291721, “A preclinical secondary pharmacology resource illuminates target-adverse drug reaction associations of marketed drugs” (Nat Commun, 2023).
